Source: publication PMC4937655 (Journal of Drug Assessment, 2013)
“Also recorded” adds a separate entry of the source. Read-outs that look alike come from different tables or passages of the source.

Experiments:
platelet aggregation = test system: platelet aggregation; design: method as in AstraZeneca, data on file; conditions: ref AstraZeneca, data on file; cited from earlier work
[1] = Ticagrelor-diltiazem interaction study: pharmacokinetic parameters of ticagrelor and AR-C124910XX; conditions: for Cmax: po
Protocol: (§1) Both studies were single-center, randomized, open-label studies with a two-period, in-patient, crossover design. For both studies, a low non-loading dose of ticagrelor (i.e., a single oral dose of 90 mg) was selected, so if an interaction occurred between ticagrelor and the CYP3A4 inhibitor, then the increase in ticagrelor plasma concentrations would minimize any safety issues. […] The approved dosing regimen of ticagrelor is 180 mg loading dose followed by 90 mg twice daily thereafter3,4.
(§2) Figure 1 depicts the overall study design for both studies. At the start of each study, volunteers were randomized to one of two treatments (A or B). After the washout period, volunteers received the alternate dosing regimen. On the scheduled day, ticagrelor was co-administered with the CYP3A4 inhibitor in the morning after fasting for ≥10 hours followed by a further fast for ≥4 hours. Water was permitted ad libitum throughout each period except for 2 hours before and after ticagrelor administration.
(§3) The limits of quantification (LOQ) for ticagrelor and AR-C124910XX were […], respectively28.
(§4) Plasma concentration–time data were used to calculate Cmax, time to maximum concentration (tmax), AUC, and the terminal elimination half-life (t½). The latter was calculated as 0.693/λz, where λz is the terminal phase elimination rate constant, derived by least-squares regression analysis of the plasma concentration–time data obtained over the terminal log-linear phase. AUC was calculated using the linear trapezoidal method and extrapolated to infinity. AR-C124910XX:ticagrelor ratios for Cmax and AUC were calculated.
(§5) Statistical analyses were conducted using SAS version 8 (SAS Institute, Cary, North Carolina, USA). Pharmacokinetic parameters were summarized by descriptive statistics. AUC and Cmax values for ticagrelor and AR-C124910XX were analyzed, following log-transformation, by analysis of variance with terms for treatment, period, and sequence, and the volunteer within sequence was included as a random effect. After exponentiation, geometric least square mean point estimates and 90% CIs for the ratio ticagrelor + CYP3A4 inhibitor/ticagrelor alone were calculated. The pre-specified limits for the 90% CI values indicating no interaction between ticagrelor and either CYP3A4 inhibitor were 0.7–1.43.

[2] = design: method as in PMID 20091161; conditions: single oral dose of ticagrelor 100 mg; healthy volunteers n = 9; cited from earlier work
[3] = Ticagrelor-ketoconazole interaction study: pharmacokinetic parameters of ticagrelor and AR-C124910XX; conditions: for Cmax: po
Protocol: as §1, §2, §3, §4, §5

[4] = design: method as in PMID 20551239, PMID 20091161, PMID 20642549, PMID 16476694, PMID 17980251; conditions: cited from earlier work
[5] = Safety and tolerability, ketoconazole study; type: in vivo, human
Protocol: (§6) Safety and tolerability of ticagrelor alone and in the presence of diltiazem or ketoconazole were evaluated by assessment of adverse events (AEs), vital signs, electrocardiographic (ECG), physical examination, and laboratory parameters (clinical chemistry, hematology, and urinalysis) throughout the studies.

[6] = cited from earlier work
[7] = design: method as in PMID 16476694; conditions: 28 days, cited from earlier work
[8] = design: method as in PMID 19717846; conditions: ticagrelor + aspirin compared with clopidogrel + aspirin; patients with ACS; cited from earlier work
P-glycoprotein = conditions: ref 18 (AstraZeneca, data on file); cited from earlier work
[9] = cited from earlier work; remark: listed apart in the source
[10] = Safety and tolerability, diltiazem study; type: in vivo, human
Protocol: as §6

CYP3A [11] = test system: CYP3A; design: method as in PMID 21177984; conditions: cited from earlier work; for Inhibition of CYP3A activity in vitro: in words
[12] = Effect of ticagrelor on diltiazem pharmacokinetic parameters; type: in vivo, human; conditions: for Tmax: human, plasma, read-out: Median tmax (range); for Effect of ticagrelor on pharmacokinetic parameters: in words
CYP3A [13] = conditions: cited from earlier work
[14] = Effect of ticagrelor on ketoconazole steady-state plasma concentrations; type: in vivo, human; conditions: for Plasma concentration, mean (% CV; range): ketoconazole 200 mg twice daily
Protocol: as §1, §3, §4

[15] = single dose 900 mg, healthy volunteers n = 6
[16] = diltiazem co-administration vs ticagrelor alone
[17] = ticagrelor + diltiazem/ticagrelor alone
[18] = ketoconazole co-administration vs ticagrelor alone
[19] = ticagrelor + ketoconazole/ticagrelor alone

Structure (SMILES): CCCSc1nc(N[C@@H]2C[C@H]2c2ccc(F)c(F)c2)c2nnn([C@@H]3C[C@H](O)[C@@H](O)[C@H]3O)c2n1 [AR-C124910XX]
- Potency in inhibiting platelet aggregation relative to ticagrelor (platelet aggregation): approximately equipotent
- Metabolite:parent AUC ratio ([1]; human, in vivo): 0.4 (39)
- Metabolite:parent Cmax ratio ([1]; human, in vivo): 0.3 (36)
- AUC ([1]; human, in vivo, 90 mg): 1630 (29) ng·h/mL
- Tmax ([1]; human, in vivo, 90 mg): 3.0 (2.0–4.0) h
- t½ ([1]; human, in vivo, 90 mg): 8.4 (1.3) h
- Cmax ([1]; human, in vivo): 173 (38) ng/mL
- AUC, mean ± standard deviation [2]: 1460 ± 408 ng·h/mL
- Metabolite:parent AUC ratio ([3]; human, in vivo): 0.49 (24)
- Metabolite:parent Cmax ratio ([3]; human, in vivo): 0.32 (22)
- AUC ([3]; human, in vivo, 90 mg): 1769 (28) ng·h/mL
- Tmax ([3]; human, in vivo, 90 mg): 2.0 (2.0–4.0) h
- t½ ([3]; human, in vivo, 90 mg): 8.0 (6.3–16.7) h
- Cmax ([3]; human, in vivo): 207 (29) ng/mL
- Metabolite level as share of the levels of ticagrelor [4]: 30–40%

Structure (SMILES): CCCSc1nc(N[C@@H]2C[C@H]2c2ccc(F)c(F)c2)c2nnn([C@@H]3C[C@H](OCCO)[C@@H](O)[C@H]3O)c2n1 [Ticagrelor]
- AEs ([5]; in vivo): five AEs
- Deaths or serious AEs ([5]; ketoconazole study): No deaths or serious AEs
- Total bleeding events: number of events (Kaplan–Meier event rates) ([6]; 90 mg twice daily, through week 4): 32 (9.8)
- Total bleeding events: number of events (Kaplan–Meier event rates) ([6]; 90 mg twice daily, through week 12): 34 (10.9)
- Mean AUC ± SD ([6]; 90 mg twice daily, week 4): 4762 ± 2443 ng·h/mL
- Total bleeding events: number of events (Kaplan–Meier event rates) ([6]; 180 mg twice daily, through week 4): 25 (8.0)
- Total bleeding events: number of events (Kaplan–Meier event rates) ([6]; 180 mg twice daily, through week 12): 33 (11.4)
- Mean AUC ± SD ([6]; 180 mg twice daily, week 4): 13,198 ± 4982 ng·h/mL
- Inhibition of platelet aggregation (IPA) ([6]; 180 mg vs 90 mg twice daily): dose-dependent increase
- Increase in ticagrelor exposure ([6]; 180 mg vs 90 mg twice daily, week 4): 277%
- Mean AUC ([7]; 100 mg ticagrelor twice daily, CV 45%): 5337 ng·h/mL
- Mean AUC ([7]; 200 mg ticagrelor twice daily, CV 39%): 15,104 ng·h/mL
- Increase in exposure ([7]; 200 mg vs 100 mg twice daily): 283%
- Rate of myocardial infarction/stroke/death from vascular causes [8]: significantly reduced
- P-glycoprotein substrate status (P-glycoprotein): substrate
- Maximum tolerated single dose ([9]; healthy volunteers): 900 mg
- AUC, mean [% CV] [9, 15]: 39,153 [38] ng·h/mL
- Bleeding-related AEs [9, 15]: no bleeding-related AEs
- Cmax, mean [% CV] [9, 15]: 5153 [42] ng/mL
- Increase in AUC [1, 16]: 174%
- Increase in Cmax [1, 16]: 69%
- Increase in half-life [1, 16]: 96%
- AUC ([1]; human, plasma, oral, 90 mg): 3700 ng·h/mL
- Tmax ([1]; human, plasma, oral, 90 mg): 2 h
- half-life ([1]; human, plasma, oral, 90 mg): 8.3 h
- Cmax ([1]; human, plasma, 90 mg): 519 ng/mL
- Effect of diltiazem on median tmax ([1]; in words): unaffected
- AUC GLS mean ratio: point estimate (90% CI) [1, 17]: 2.74 (2.40–3.13)
- Cmax GLS mean ratio: point estimate (90% CI) [1, 17]: 1.69 (1.47–1.95)
- AUC, mean ± standard deviation [2]: 3683 ± 753 ng·h/mL
- Deaths or serious AEs ([10]; diltiazem study): No deaths or serious AEs
- Bleeding events ([10]; in vivo): No such events
- AEs reported ([10]; in vivo, po): No AEs
- Metabolism by CYP3A (CYP3A [11]; human liver microsomes / in vitro): principally metabolized by CYP3A; also recorded: substrate
- Inhibition of CYP3A activity in vitro (CYP3A [11]): weak-to-moderate inhibitor
- Inhibition of CYP3A activity in vitro (CYP3A [11]; listed as ticagrelor): weak inhibitor
- Increase in AUC ([3]; co-administration of ketoconazole): ≥ 5 fold
- AUC ([3]; human, plasma, oral, 90 mg): 3640 ng·h/mL
- Tmax ([3]; human, plasma, oral, 90 mg): 2 h
- half-life ([3]; human, plasma, oral, 90 mg): 7.1 h
- Cmax ([3]; human, plasma, 90 mg): 654 ng/mL
- Increase in AUC [3, 18]: 632%
- Increase in Cmax [3, 18]: 135%
- Half-life increased to (relative to ticagrelor alone) ([3]; presence of ketoconazole): approximately 362%
- AUC GLS mean ratio: point estimate (90% CI) [3, 19]: 7.32 (6.43–8.34)
- Cmax GLS mean ratio: point estimate (90% CI) [3, 19]: 2.35 (2.13–2.60)

Structure (SMILES): COc1ccc([C@@H]2Sc3ccccc3N(CCN(C)C)C(=O)[C@@H]2OC(C)=O)cc1 [diltiazem, Diltiazem]
- Abnormal ECG evaluations of first-degree atria-ventricular block ([10]; in vivo): two volunteers
- Systolic and diastolic blood pressure compared to baseline ([10]; in vivo): marginal decrease
- Tmax ([12]; diltiazem + ticagrelor): 10 h
- Tmax ([12]; diltiazem alone): 8 h
- Effect of ticagrelor on pharmacokinetic parameters [12]: no effect; also recorded: did not affect
- Effect of ticagrelor on pharmacokinetic parameters ([12]; listed as Diltiazem): not significantly affected

Structure (SMILES): CC(=O)N1CCN(c2ccc(OCC3COC(Cn4ccnc4)(c4ccc(Cl)cc4Cl)O3)cc2)CC1 (stereo not drawn) [ketoconazole]
- CYP3A substrate status (CYP3A [13]): substrates for CYP3A
- Classification as CYP3A inhibitor (CYP3A [13]): strong CYP3A inhibitor
- Effect of ticagrelor on steady-state plasma concentrations / pharmacokinetic parameters ([14]; in words): not significantly affected; also recorded: did not affect
- Plasma concentration, mean (% CV; range) ([14]; 12 hours post-dosing with ticagrelor on day 4): 1271 (84;334–4150) ng/mL
- Plasma concentration, mean (% CV; range) ([14]; pre-dosing on day 4, absence of ticagrelor): 1410 (73; 396–3540) ng/mL
